According to patent publication US6525021B1 (priority 1998, dated 2003):
“Also recorded” adds a separate entry of the source. Non-standard residues stand in square brackets, D forms with d. Residues, ends and D or L forms follow the SMILES beside them. *: point of attachment. X1 = CC(=O)N[C@@H]1[C@@H](O[C@@H]2O[C@H](CO)[C@H](O)[C@H](O)[C@H]2O)[C@@H](O)[C@@H](CO)O[C@@H]1*; pGlu = O=C1CC[C@@H](C(=O)O)N1

Experiments:
[1] = biological target: human neurotensin type 1 receptor (hNTR1) (Homo sapiens, UniProt P30989); assay: biochemical; type: binding
Chain of human neurotensin type 1 receptor (hNTR1) (P30989 whole entry, looked up): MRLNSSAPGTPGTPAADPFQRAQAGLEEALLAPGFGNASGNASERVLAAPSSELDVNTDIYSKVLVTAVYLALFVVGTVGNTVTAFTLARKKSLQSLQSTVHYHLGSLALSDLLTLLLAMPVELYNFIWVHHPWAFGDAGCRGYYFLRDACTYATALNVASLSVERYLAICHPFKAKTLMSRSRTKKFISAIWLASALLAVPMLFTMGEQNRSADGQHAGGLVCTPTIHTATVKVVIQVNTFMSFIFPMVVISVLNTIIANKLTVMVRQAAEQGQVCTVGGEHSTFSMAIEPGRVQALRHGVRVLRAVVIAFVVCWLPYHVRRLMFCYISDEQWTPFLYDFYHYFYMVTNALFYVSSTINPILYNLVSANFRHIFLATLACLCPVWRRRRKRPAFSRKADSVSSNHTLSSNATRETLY

[2] = biological target: rat neurotensin type 2 receptor (rNTR2) (Rattus norvegicus, UniProt Q63384); assay: biochemical; type: binding
Chain of rat neurotensin type 2 receptor (rNTR2) (Q63384 whole entry, looked up): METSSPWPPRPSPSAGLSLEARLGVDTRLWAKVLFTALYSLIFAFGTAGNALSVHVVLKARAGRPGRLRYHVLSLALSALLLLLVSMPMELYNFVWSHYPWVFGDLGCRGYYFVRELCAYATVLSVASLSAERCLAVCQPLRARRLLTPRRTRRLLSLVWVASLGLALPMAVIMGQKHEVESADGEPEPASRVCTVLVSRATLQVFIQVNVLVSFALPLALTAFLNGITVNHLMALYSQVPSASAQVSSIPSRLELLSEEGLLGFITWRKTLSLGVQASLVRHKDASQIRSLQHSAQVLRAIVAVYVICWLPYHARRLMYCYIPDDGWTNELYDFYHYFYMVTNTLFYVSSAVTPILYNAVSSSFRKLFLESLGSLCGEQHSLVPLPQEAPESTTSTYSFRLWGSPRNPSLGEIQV

[3] = biological target: solubilized mouse neurotensin type 3 receptor (mNTR3) (Mus musculus, UniProt Q6PHU5); assay: biochemical; type: binding
Chain of solubilized mouse neurotensin type 3 receptor (mNTR3) (Q6PHU5 74-825 limits assumed): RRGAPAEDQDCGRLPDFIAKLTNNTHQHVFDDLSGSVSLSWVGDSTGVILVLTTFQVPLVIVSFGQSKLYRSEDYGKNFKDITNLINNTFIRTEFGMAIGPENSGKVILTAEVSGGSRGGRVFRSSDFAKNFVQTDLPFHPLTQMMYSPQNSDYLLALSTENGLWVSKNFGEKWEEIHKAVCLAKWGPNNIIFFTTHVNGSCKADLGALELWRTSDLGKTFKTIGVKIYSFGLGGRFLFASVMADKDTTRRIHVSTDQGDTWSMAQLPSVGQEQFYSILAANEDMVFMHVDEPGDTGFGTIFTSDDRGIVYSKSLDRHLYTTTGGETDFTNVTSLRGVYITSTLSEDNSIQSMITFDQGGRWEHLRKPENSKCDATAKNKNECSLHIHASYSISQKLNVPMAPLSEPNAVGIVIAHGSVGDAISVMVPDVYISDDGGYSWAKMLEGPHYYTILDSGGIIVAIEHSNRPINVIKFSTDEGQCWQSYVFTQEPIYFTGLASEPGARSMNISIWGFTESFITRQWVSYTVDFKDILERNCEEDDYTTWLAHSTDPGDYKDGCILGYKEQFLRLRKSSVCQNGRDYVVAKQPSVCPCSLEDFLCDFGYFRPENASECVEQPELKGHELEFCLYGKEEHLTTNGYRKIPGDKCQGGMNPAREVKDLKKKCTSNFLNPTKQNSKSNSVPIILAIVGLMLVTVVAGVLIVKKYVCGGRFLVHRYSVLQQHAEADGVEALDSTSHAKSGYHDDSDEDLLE

rNTR1 = rNTR1 (Rattus norvegicus, UniProt P20789); assay: cell-based; type: cell-based
Chain of rNTR1 (P20789 whole entry, looked up): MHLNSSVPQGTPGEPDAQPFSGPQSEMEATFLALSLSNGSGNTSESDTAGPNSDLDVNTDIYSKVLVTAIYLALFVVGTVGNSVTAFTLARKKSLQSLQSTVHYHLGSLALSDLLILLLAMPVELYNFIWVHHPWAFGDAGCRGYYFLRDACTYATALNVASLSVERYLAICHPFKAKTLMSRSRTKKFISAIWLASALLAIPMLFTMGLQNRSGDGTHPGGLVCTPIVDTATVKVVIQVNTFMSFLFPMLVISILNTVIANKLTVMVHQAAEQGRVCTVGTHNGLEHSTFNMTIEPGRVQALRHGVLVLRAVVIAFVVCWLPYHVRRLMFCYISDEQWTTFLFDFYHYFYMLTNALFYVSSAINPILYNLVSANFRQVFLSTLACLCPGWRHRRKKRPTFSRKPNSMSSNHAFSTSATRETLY

rNTR2 = rNTR2 (Rattus norvegicus, UniProt Q63384); type: cell-based
Chain of rNTR2 (Q63384 whole entry, looked up): as the sequence (Q63384 whole entry, looked up) above

[4] = biological target: rat neurotensin type 1 receptor (rNTR1) (Rattus norvegicus, UniProt P20789); assay: biochemical; type: binding
Chain of rat neurotensin type 1 receptor (rNTR1) (P20789 whole entry, looked up): as the sequence (P20789 whole entry, looked up) above

[5] = design: species or system mice; settings: mouse, in vivo

Row | Molecule | IC50 [1] | IC50 [2] | IC50 [3] | EC50 (rNTR1) | agonistic efficacy compared with Neurotensin1-13 (rNTR1) | mode of action on CHO cells expressing the rNTR1 (rNTR1) | agonist response (rNTR2) | IC50 [4] | activity (onset and recovery time) compared with analog A [5] | time mice were drowsy [5]
1 | CC[C@H](C)[C@H](NC(=O)[C@H](Cc1ccc(O)cc1)NC(=O)[C@@H]1CCCN1C(=O)[C@H](CCCCN)NC(=O)[C@H](CCCCN)NC(=O)[C@@H](NC(=O)[C@H](C)NC(=O)[C@H](CC(N)=O)NC(=O)[C@H](CO)NC(=O)CNC(=O)CNC(=O)[C@H](CCC(=O)O)NC(=O)[C@H](CCC(=O)O)NC(=O)[C@H](CO)NC(=O)[C@@H]1CCC(=O)N1)[C@@H](C)O[C@H]1O[C@H](CO)[C@H](O)[C@H](O[C@@H]2O[C@H](CO)[C@H](O)[C@H](O)[C@H]2O)[C@H]1NC(C)=O)C(=O)N[C@@H](CC(C)C)C(=O)O [contulakin-G] ([pGlu]SEEGGSNAT(X1)KKPYIL-OH) | 960 nM | 730 nM | 250 nM | 20 to 30 nM | approximately half | acted as agonists | No response; also recorded: absence of any agonistic effect | 524 nM | – | –
2 | Δ1-9-Ser10-contulakin-G containing the native glycosylation on Ser10 [analog B] | – | – | – | – | – | – | – | – | same activity | 100 min
